Measurements taken from the CheMixHub ionic liquid set.
± gives the uncertainty stated by the source.

Assay: xn = mol fraction of the nth substance listed

FC(F)(F)c1ccccc1 + CCCC[N+]1(C)CCCC1.FC(F)(F)C(F)(F)[P-](F)(F)(F)(C(F)(F)C(F)(F)F)C(F)(F)C(F)(F)F
101 kPa
Conditions	electrical conductivity [S/m]	viscosity [mPa·s]
298.1 K, x2 = 0	–	0.53 ± 0.03
298.1 K, x2 = 0.059	0.368 ± 0.007	–
298.1 K, x2 = 0.099	0.536 ± 0.011	–
298.1 K, x2 = 0.144	0.663 ± 0.013	–
298.1 K, x2 = 0.198	–	3.67 ± 0.15
298.1 K, x2 = 0.203	0.762 ± 0.015	–
298.1 K, x2 = 0.27	–	5.93 ± 0.31
298.1 K, x2 = 0.274	0.696 ± 0.014	–
298.1 K, x2 = 0.371	0.619 ± 0.012	–
298.1 K, x2 = 0.495	–	21.7 ± 1
298.1 K, x2 = 0.5	0.461 ± 0.009	–
298.1 K, x2 = 0.69	0.311 ± 0.006	55.1 ± 2.3
298.1 K, x2 = 0.858	0.172 ± 0.003	111.8 ± 5.9
303 K, x2 = 0.063	0.394 ± 0.008	–
303 K, x2 = 0.099	0.576 ± 0.012	–
303 K, x2 = 0.144	0.711 ± 0.014	–
303 K, x2 = 0.2	0.82 ± 0.016	–
303 K, x2 = 0.274	0.772 ± 0.015	–
303 K, x2 = 0.366	–	8.56 ± 0.35
303 K, x2 = 0.374	0.681 ± 0.014	–
303 K, x2 = 0.497	0.553 ± 0.011	–
303 K, x2 = 0.498	–	17.83 ± 0.75
303 K, x2 = 0.694	0.369 ± 0.007	–
303 K, x2 = 0.852	–	84.4 ± 3.7
303 K, x2 = 0.858	0.212 ± 0.004	–
308.1 K, x2 = 0.063	0.415 ± 0.008	–
308.1 K, x2 = 0.102	0.612 ± 0.012	–
308.1 K, x2 = 0.141	0.766 ± 0.015	–
308.1 K, x2 = 0.201	–	2.93 ± 0.12
308.1 K, x2 = 0.206	0.886 ± 0.018	–
308.1 K, x2 = 0.281	0.842 ± 0.017	–
308.1 K, x2 = 0.366	–	7.87 ± 0.33
308.1 K, x2 = 0.378	0.761 ± 0.015	–
308.1 K, x2 = 0.5	0.611 ± 0.012	–
308.1 K, x2 = 0.69	–	39.4 ± 1.6
308.1 K, x2 = 0.694	0.435 ± 0.009	–
308.1 K, x2 = 0.858	0.259 ± 0.005	–
313 K, x2 = 0.063	0.434 ± 0.009	–
313 K, x2 = 0.099	0.645 ± 0.013	–
313 K, x2 = 0.141	–	1.77 ± 0.08
313 K, x2 = 0.142	0.817 ± 0.016	–
313 K, x2 = 0.203	0.951 ± 0.019	–
313 K, x2 = 0.278	0.911 ± 0.018	–
313 K, x2 = 0.371	0.834 ± 0.017	–
313 K, x2 = 0.498	–	12.73 ± 0.53
313 K, x2 = 0.5	0.688 ± 0.014	–
313 K, x2 = 0.687	–	32.3 ± 1.4
313 K, x2 = 0.697	0.504 ± 0.01	–
313 K, x2 = 0.859	0.31 ± 0.006	–
318.1 K, x2 = 0.063	0.456 ± 0.009	–
318.1 K, x2 = 0.099	0.678 ± 0.014	–
318.1 K, x2 = 0.142	0.86 ± 0.017	–
318.1 K, x2 = 0.2	1.02 ± 0.02	–
318.1 K, x2 = 0.275	0.988 ± 0.02	–
318.1 K, x2 = 0.369	–	6.11 ± 0.25
318.1 K, x2 = 0.372	0.914 ± 0.018	–
318.1 K, x2 = 0.504	0.757 ± 0.015	–
318.1 K, x2 = 0.687	–	26.6 ± 1.2
318.1 K, x2 = 0.694	0.577 ± 0.012	–
318.1 K, x2 = 0.855	0.361 ± 0.007	–
323 K, x2 = 0	–	0.46 ± 0.02
323 K, x2 = 0.026	0.204 ± 0.004	–
323 K, x2 = 0.095	–	1.09 ± 0.05
323 K, x2 = 0.099	0.715 ± 0.014	–
323 K, x2 = 0.142	0.908 ± 0.018	–
323 K, x2 = 0.201	1.08 ± 0.022	–
323 K, x2 = 0.278	1.07 ± 0.022	–
323 K, x2 = 0.372	0.991 ± 0.02	–
323 K, x2 = 0.498	–	9.89 ± 0.41
323 K, x2 = 0.501	0.834 ± 0.017	–
323 K, x2 = 0.694	0.658 ± 0.013	–
323 K, x2 = 0.856	–	37.4 ± 1.9
323 K, x2 = 0.862	0.416 ± 0.008	–

CCCC[n+]1ccn(C)c1.F[P-](F)(F)(F)(F)F + ClC(Cl)Cl
298.15 K, 101 kPa
Conditions	electrical conductivity [S/m]	viscosity [mPa·s]
x2 = 0	0.157 ± 0.019	260
x2 = 0.0857	0.199 ± 0.024	200
x2 = 0.1741	0.253 ± 0.03	144 ± 63
x2 = 0.2614	0.319 ± 0.038	103 ± 31
x2 = 0.3625	0.411 ± 0.049	68.4 ± 9.1
x2 = 0.4608	0.519 ± 0.062	43 ± 4.3
x2 = 0.5633	0.644 ± 0.077	25 ± 2.5
x2 = 0.6683	0.726 ± 0.087	13.1 ± 1.4
x2 = 0.7326	0.729 ± 0.087	10 ± 1.1

CCCC[n+]1ccn(C)c1.[O-][Cl+3]([O-])([O-])[O-] + CCO
viscosity [mPa·s], 101 kPa
Conditions	x2 = 0.592	x2 = 0.637	x2 = 0.79	x2 = 0.86
303.15 K	–	8.7 ± 4	4	3.6
313.15 K	7.4	6.7	–	–

CC#N + CCC[N+]1(C)CCCC1.O=S(=O)([N-]S(=O)(=O)C(F)(F)F)C(F)(F)F
101 kPa, x2 = 0
Conditions	viscosity [mPa·s]
278.15 K	0.411 ± 0.017
288.15 K	0.38 ± 0.016
298.15 K	0.346 ± 0.015
308.15 K	0.311 ± 0.013
318.15 K	0.279 ± 0.012
328.15 K	0.248 ± 0.011

CCCC[n+]1ccccc1.[Cl-] + CC[n+]1ccccc1.[Br-]
101 kPa
Conditions	viscosity [mPa·s]
388.1 K, x2 = 0.484	30 ± 1.9
388.1 K, x2 = 0.694	23.1 ± 1.3
393.1 K, x2 = 0.64	21.6 ± 1.2
393.1 K, x2 = 0.797	18.11 ± 0.92
403.1 K, x2 = 0.408	21.2 ± 1.3
403.1 K, x2 = 0.604	17.39 ± 0.95
408.1 K, x2 = 0.64	14.86 ± 0.78
408.1 K, x2 = 0.797	12.97 ± 0.62
413.1 K, x2 = 0.193	19.5 ± 1.2
413.1 K, x2 = 0.64	13.22 ± 0.67
413.1 K, x2 = 0.694	12.73 ± 0.62
413.1 K, x2 = 0.797	11.67 ± 0.55
418.1 K, x2 = 0.104	18.3 ± 1.1
418.1 K, x2 = 0.64	11.81 ± 0.58
418.1 K, x2 = 0.694	11.42 ± 0.55
423.1 K, x2 = 0.313	13.73 ± 0.72
423.1 K, x2 = 0.797	9.52 ± 0.43
423.1 K, x2 = 0.894	8.8 ± 0.39
428.1 K, x2 = 0.313	12.22 ± 0.61
428.1 K, x2 = 0.604	9.82 ± 0.46
428.1 K, x2 = 0.694	9.28 ± 0.42
433.1 K, x2 = 0.484	9.72 ± 0.45
433.1 K, x2 = 0.64	8.61 ± 0.39
438.1 K, x2 = 0.604	8.04 ± 0.35
438.1 K, x2 = 0.894	6.68 ± 0.28
443.1 K, x2 = 0.64	7.11 ± 0.3
443.1 K, x2 = 0.797	6.56 ± 0.29

CC#N + CCCC[P+](CCCC)(CCCC)CCCC.F[B-](F)(F)F
100 kPa, x2 = 0
Conditions	viscosity [mPa·s]
293.15 K	0.354 ± 0.021
298.15 K	0.338 ± 0.02
303.15 K	0.324 ± 0.02
308.15 K	0.31 ± 0.019
313.15 K	0.298 ± 0.018
318.15 K	0.286 ± 0.017

CCCCCCCCCCCCCCCCCC[n+]1ccn(C)c1.O=S(=O)([N-]S(=O)(=O)C(F)(F)F)C(F)(F)F + CCCCCCCCCCCCCCCCn1cc[n+](C)c1.O=S(=O)([N-]S(=O)(=O)C(F)(F)F)C(F)(F)F
Conditions	viscosity [mPa·s]
323 K, 101 kPa, x2 = 0.621	89.5 ± 2.1

CC(CC(C)(C)C)CP(=O)([O-])CC(C)CC(C)(C)C.CCCCCCCCCCCCCC[P+](CCCCCC)(CCCCCC)CCCCCC + CCCCCCCCCCCC + O
Conditions	viscosity [mPa·s]
303.15 K, 100 kPa, x2 = 0, x3 = 0.8861	119.5 ± 7.9

Cn1cc[nH+]c1.[Cl-] + O
viscosity [mPa·s], 100 kPa
Conditions	x1 = 9.081e-05	x1 = 0.000182	x1 = 0.0003637	x1 = 0.0005491	x1 = 0.0007277	x1 = 0.0008883	x1 = 0.001091	x1 = 0.001364	x1 = 0.00178
278.15 K	1.521 ± 0.011	1.523 ± 0.011	1.525 ± 0.011	1.528 ± 0.011	1.53 ± 0.011	1.532 ± 0.011	1.535 ± 0.011	1.539 ± 0.011	1.543 ± 0.012
283.15 K	1.308 ± 0.01	1.309 ± 0.01	1.311 ± 0.01	1.313 ± 0.01	1.314 ± 0.01	1.316 ± 0.01	1.319 ± 0.01	1.32 ± 0.01	1.323 ± 0.01
288.15 K	1.139 ± 0.009	1.141 ± 0.009	1.142 ± 0.009	1.144 ± 0.009	1.145 ± 0.009	1.146 ± 0.009	1.149 ± 0.009	1.151 ± 0.009	1.153 ± 0.009
293.15 K	1.003 ± 0.008	1.004 ± 0.008	1.005 ± 0.008	1.007 ± 0.008	1.009 ± 0.008	1.01 ± 0.008	1.013 ± 0.008	1.014 ± 0.008	1.018 ± 0.008
298.15 K	0.89 ± 0.007	0.891 ± 0.007	0.892 ± 0.007	0.894 ± 0.007	0.896 ± 0.007	0.897 ± 0.007	0.899 ± 0.007	0.901 ± 0.007	0.904 ± 0.007
303.15 K	0.798 ± 0.006	0.799 ± 0.006	0.8 ± 0.006	0.801 ± 0.006	0.803 ± 0.006	0.804 ± 0.006	0.805 ± 0.006	0.806 ± 0.006	0.808 ± 0.006
308.15 K	0.719 ± 0.006	0.72 ± 0.006	0.721 ± 0.006	0.722 ± 0.006	0.723 ± 0.006	0.724 ± 0.006	0.725 ± 0.006	0.727 ± 0.006	0.728 ± 0.006
313.15 K	0.652 ± 0.005	0.653 ± 0.005	0.654 ± 0.005	0.655 ± 0.005	0.656 ± 0.005	0.657 ± 0.005	0.658 ± 0.005	0.659 ± 0.005	0.662 ± 0.005
